Measurements published in patent US12421212B2, “Substituted benzenecarboxamides as IL-17A modulators” (DiCE Alpha, Inc., priority 2019, dated 2025).

Molecular target: T1, IL-17A/A (Homo sapiens, UniProt Q16552)
T1 construct: purchased Genscript Z03228
T1 sequence (Q16552 24-155): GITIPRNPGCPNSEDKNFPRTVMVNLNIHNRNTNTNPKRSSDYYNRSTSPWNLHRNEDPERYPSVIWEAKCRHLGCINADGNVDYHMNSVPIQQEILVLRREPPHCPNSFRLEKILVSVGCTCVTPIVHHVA
Test: IL-17A/A HEK-Blue Cell Assay
Format: cell-based
Conditions: HEK-Blue IL-17A reporter cell line, SEAP readout at A630, 20 hours incubation with IL-17A/A, top concentration 10 uM, 1 uM or 0.3 uM; for IC50: read-out: IL-17A/A inhibition (pIC50) (converted)

Row | SMILES | IL-17A/A inhibition (pIC50) | IC50 [µM]
1 | CCC(=O)N[C@@H](C(=O)O)[C@@H](C)c1ccc(NC(=O)[C@@H](NC(=O)c2ccnn2CC)[C@H]2CC[C@H](C)CC2)c(F)c1 [Compound 661] | X3b (compounds were evaluated up to 0.3 uM and inhibited activity at 0.3 uM by less than 20%) | –
2 | CCC(=O)NC(C(=O)N1CCN(C(C)C)CC1)[C@@H](C)c1ccc(NC(=O)[C@@H](NC(=O)c2ccnn2CC)[C@H]2CC[C@H](C)CC2)c(F)c1 (some centres unmarked) [Compound 664] | X3b (compounds were evaluated up to 0.3 uM and inhibited activity at 0.3 uM by less than 20%) | –
3 | CCn1nccc1C(=O)N[C@H](C(=O)Nc1ccc([C@H](C)[C@@H](NC(=O)CC#N)C(=O)N2CCN(C)CC2)cc1F)C1CCCCC1 [Compound 665] | – | 0.1 to 10
4 | CCn1nccc1C(=O)N[C@H](C(=O)Nc1ccc([C@H](C)[C@@H](NC(=O)c2cc(C)n[nH]2)C(=O)N2CCN(C)CC2)cc1F)C1CCCCC1 [Compound 666] | – | 0.1 to 10
5 | CCC(=O)N[C@H](Cc1ccc(NC(=O)[C@@H](NC(=O)c2ccnn2CC)C2CCCCC2)c(F)c1)C(=O)N1CC(N(C)C)C1 [Compound 667] | – | 0.1 to 10
6 | CCC(=O)N[C@H](Cc1ccc(NC(=O)[C@@H](NC(=O)c2ccnn2CC(F)F)C2CCCCC2)c(F)c1)C(=O)N1CCN(C)CC1 [Compound 669] | – | 0.1 to 10
7 | CCC(=O)N[C@@H](C(=O)N1CCN(Cc2ccccc2)CC1)[C@H](C)c1ccc(NC(=O)[C@@H](NC(=O)c2ccnn2CC)C2CCCCC2)c(F)c1 [Compound 670] | – | 0.1 to 10
8 | CCC(=O)N[C@H](Cc1ccc(NC(=O)[C@@H](NC(=O)c2coc3ccc(OC)cc23)C2CCCCC2)c(F)c1)C(=O)N1CCN(C)CC1 [Compound 671] | – | 0.1 to 10
9 | CCC(=O)N[C@H](Cc1ccc(NC(=O)[C@@H](NC(=O)c2ccnn2C(C)C)C2CCC(F)(F)CC2)c(F)c1)C(=O)N1CCN(C)CC1 [Compound 672] | – | 0.1 to 10
10 | CCC(=O)N[C@@H](C(=O)N1CCN(C)CC1)[C@@H](C)c1ccc(NC(=O)[C@@H](NC(=O)C(F)(F)c2cccc(C#N)c2)C2CCOCC2)c(F)c1 [Compound 674] | – | 0.1 to 10
11 | CCC(=O)N[C@H](Cc1ccc(NC(=O)[C@@H](NC(=O)c2ccnn2C2CC2)C2CCCCC2)c(F)c1)C(=O)N1CCN(C)CC1 [Compound 676] | – | 0.1 to 10
12 | CCn1nccc1C(=O)N[C@H](C(=O)Nc1ccc([C@H](C)[C@@H](NC(=O)c2cn[nH]c2)C(=O)N2CCN(C)CC2)cc1F)C1CCCCC1 [Compound 677] | – | 0.1 to 10
13 | CCn1nccc1C(=O)N[C@H](C(=O)Nc1ccc([C@H](C)[C@@H](NC(=O)c2cnc(C)n2C)C(=O)N2CCN(C)CC2)cc1F)C1CCCCC1 [Compound 678] | – | 0.1 to 10
14 | CCC(=O)N[C@H](Cc1ccc(NC(=O)[C@@H](NC(=O)c2ccnn2CC)C2CCCCC2)c(F)c1)C(=O)N1CCN(CCF)CC1 [Compound 679] | – | 0.1 to 10
15 | CCC(=O)N[C@@H](C(=O)N1CCN(C)CC1)[C@@H](CC)c1ccc(NC(=O)[C@@H](NC(=O)c2ccnn2CC)C2CCCCC2)cc1 [Compound 680] | – | 0.1 to 10
16 | CCn1nccc1C(=O)N[C@H](C(=O)Nc1ccc([C@H](C)[C@@H](NC(=O)c2c[nH]c(=O)[nH]2)C(=O)N2CCN(C)CC2)cc1F)C1CCCCC1 [Compound 681] | – | 0.1 to 10
17 | CCn1nccc1C(=O)N[C@H](C(=O)Nc1ccc([C@H](C)[C@@H](NC(=O)c2cscn2)C(=O)N2CCN(C)CC2)cc1F)C1CCCCC1 [Compound 682] | – | 0.1 to 10
18 | CCn1nccc1C(=O)N[C@H](C(=O)Nc1ccc([C@H](C)[C@@H](NC(=O)c2coc(C)n2)C(=O)N2CCN(C)CC2)cc1F)C1CCCCC1 [Compound 683] | – | 0.1 to 10
19 | CCC(=O)N[C@@H](C(=O)N1CCN(C)CC1)[C@@H](C)c1ccc(NC(=O)[C@@H](NC(=O)C(F)(F)c2cccc(C)c2)C2CCCCC2)c(F)c1 [Compound 684] | – | 0.1 to 10
20 | CCn1nccc1C(=O)N[C@H](C(=O)Nc1ccc([C@H](C)[C@@H](NC(=O)c2ccsn2)C(=O)N2CCN(C)CC2)cc1F)C1CCCCC1 [Compound 685] | – | 0.1 to 10
21 | CCC(=O)N[C@H](Cc1ccc(NC(=O)[C@@H](NC(=O)c2ccnn2CC)C2CCCCC2)c(F)c1)C(=O)N1CCN(C)C[C@@H]1C [Compound 686] | – | 0.1 to 10
22 | CCn1nccc1C(=O)N[C@H](C(=O)Nc1ccc([C@H](C)[C@@H](NC(=O)c2cc(C)on2)C(=O)N2CCN(C)CC2)cc1F)C1CCCCC1 [Compound 687] | – | 0.1 to 10

Row | SMILES | IL-17A/A inhibition (pIC50) | IC50 [µM]
23 | CCC(=O)N[C@H](Cc1ccc(NC(=O)[C@@H](NC(=O)c2cnn3c2SCC3)C2CCCCC2)c(F)c1)C(=O)N1CCN(C)CC1 [Compound 688] | – | 0.1 to 10
24 | CCC(=O)N[C@H](Cc1ccc(NC(=O)[C@@H](NC(=O)c2ccnn2CC)C2CCC(F)(F)CC2)c(F)c1)C(=O)N1CCN(C)CC1 [Compound 689] | – | 0.1 to 10
25 | CCC(=O)N[C@H](Cc1ccc(NC(=O)[C@@H](NC(=O)c2ccnn2CC)C2CCCCC2)c(F)c1)C(=O)N1CCNC2(CC2)C1 [Compound 690] | – | 0.1 to 10
26 | CCC(=O)N[C@H](Cc1ccc(NC(=O)[C@@H](NC(=O)c2ccnn2CC)C2CCCCC2)cc1Cl)C(=O)N1CCN(C)CC1 [Compound 691] | – | 0.1 to 10
27 | CCC(=O)N[C@H](Cc1ccc(NC(=O)[C@@H](NC(=O)c2conc2CC)C2CCC(F)(F)CC2)c(F)c1)C(=O)N1CCN(C)CC1 [Compound 692] | – | 0.1 to 10
28 | CCC(=O)NC(Cc1ccc(NC(=O)[C@@H](NC(=O)c2ccnn2CC)C2CCCCC2)c(F)c1)C(=O)N1CCN2CCOCC2C1 (some centres unmarked) [Compound 693] | – | 0.1 to 10
29 | CCC(=O)N[C@H](Cc1ccc(NC(=O)[C@@H](NC(=O)c2ccnn2CC)C2CCCCC2)c(F)c1)C(=O)Nc1cccnc1 [Compound 694] | – | 0.1 to 10
30 | CCn1nccc1C(=O)N[C@H](C(=O)Nc1ccc([C@H](C)[C@@H](NC(=O)c2csc(N)n2)C(=O)N2CCN(C)CC2)cc1F)C1CCCCC1 [Compound 695] | – | 0.1 to 10
31 | CCC(=O)N[C@H](Cc1ccc(NC(=O)[C@@H](NC(=O)c2ccnn2CC)C2CCCCC2)c(F)c1)C(=O)N1C[C@@H]2C[C@H]1CN2C [Compound 696] | X2a (compounds were evaluated up to 1 uM and did not inhibit activity by >80%, however they showed some activity at 1 uM (less than 80% and more than 20%)) | –
32 | CCC(=O)N[C@H](Cc1ccc(NC(=O)[C@@H](NC(=O)c2ccnn2CC)C2CCCCC2)c(F)c1)C(=O)N1CCN2CCCC[C@@H]2C1 [Compound 697] | X2a (compounds were evaluated up to 1 uM and did not inhibit activity by >80%, however they showed some activity at 1 uM (less than 80% and more than 20%)) | –
33 | CCC(=O)N[C@H](Cc1ccc(NC(=O)[C@@H](NC(=O)c2ccnn2CC)c2cccc3ccccc23)c(F)c1)C(=O)N1CCN(C)CC1 [Compound 698] | X2b (compounds were evaluated up to 1 uM and inhibited activity at 1 uM by less than 20%) | –
34 | CCC(=O)N[C@H](Cc1ccc(NC(=O)[C@@H](NC(=O)c2cnc(C(=O)NC)s2)C2CCCCC2)c(F)c1)C(=O)N1CCN(C)CC1 [Compound 699] | X2b (compounds were evaluated up to 1 uM and inhibited activity at 1 uM by less than 20%) | –
35 | CCn1nccc1C(=O)N[C@H](C(=O)Nc1ccc(C[C@@H](Nc2nc(N)nc(C(F)(F)F)n2)C(=O)N2CCN(C)CC2)cc1F)C1CCCCC1 [Compound 700] | X2a (compounds were evaluated up to 1 uM and did not inhibit activity by >80%, however they showed some activity at 1 uM (less than 80% and more than 20%)) | –
36 | CCn1nccc1C(=O)N[C@H](C(=O)Nc1ccc(C[C@@H](Nc2ncc(C#N)c(OC)n2)C(=O)N2CCN(C)CC2)cc1F)C1CCCCC1 [Compound 701] | X2a (compounds were evaluated up to 1 uM and did not inhibit activity by >80%, however they showed some activity at 1 uM (less than 80% and more than 20%)) | –
37 | CCn1nccc1C(=O)N[C@H](C(=O)Nc1ccc(C[C@@H](NC(=O)c2cn(C)cn2)C(=O)N2CCN(C)CC2)cc1F)C1CCCCC1 [Compound 702] | X2b (compounds were evaluated up to 1 uM and inhibited activity at 1 uM by less than 20%) | –
38 | CCC(=O)N[C@H](Cc1ccc(NC(=O)[C@@H](NC(=O)c2cnn3c2CCC3)C2CCCCC2)c(F)c1)C(=O)N1CCN(C)CC1 [Compound 703] | X2a (compounds were evaluated up to 1 uM and did not inhibit activity by >80%, however they showed some activity at 1 uM (less than 80% and more than 20%)) | –
39 | CCC(=O)N[C@H](Cc1ccc(NC(=O)[C@@H](NC(=O)c2ccnn2CCO)C2CCCCC2)c(F)c1)C(=O)N1CCN(C)CC1 [Compound 704] | X2a (compounds were evaluated up to 1 uM and did not inhibit activity by >80%, however they showed some activity at 1 uM (less than 80% and more than 20%)) | –
40 | CCC(=O)N[C@H](Cc1ccc(NC(=O)[C@@H](NC(=O)c2noc3c2CNCC3)C2CCCCC2)c(F)c1)C(=O)N1CCN(C)CC1 [Compound 705] | X2b (compounds were evaluated up to 1 uM and inhibited activity at 1 uM by less than 20%) | –
41 | CCC(=O)N[C@H](Cc1ccc(NC(=O)[C@@H](NC(=O)c2nn(C)c3c2CNCC3)C2CCCCC2)c(F)c1)C(=O)N1CCN(C)CC1 [Compound 706] | X2b (compounds were evaluated up to 1 uM and inhibited activity at 1 uM by less than 20%) | –
42 | CCC(=O)N[C@H](Cc1ccc(NC(=O)[C@@H](NC(=O)c2coc3c2C(=O)NCC3)C2CCCCC2)c(F)c1)C(=O)N1CCN(C)CC1 [Compound 708] | X2b (compounds were evaluated up to 1 uM and inhibited activity at 1 uM by less than 20%) | –
43 | CCC(=O)N[C@H](Cc1ccc(NC(=O)[C@@H](NC(=O)C(C)(C)c2ccccc2)C2CCCCC2)c(F)c1)C(=O)N1CCN(C)CC1 [Compound 709] | X2b (compounds were evaluated up to 1 uM and inhibited activity at 1 uM by less than 20%) | –
44 | CCC(=O)N[C@H](Cc1ccc(NC(=O)[C@@H](NC(=O)C2(c3ccccc3)CC2)C2CCCCC2)c(F)c1)C(=O)N1CCN(C)CC1 [Compound 710] | X2b (compounds were evaluated up to 1 uM and inhibited activity at 1 uM by less than 20%) | –
